Data set [1] is described as follows: Pharmacokinetics in humans of resveratrol formulations (plasma profile of total resveratrol). In kind it is in vivo, human. The settings on record: voluntary subjects, 180 mg. As to the method:
FIG. 1. Plasma profile of total resveratrol (free resveratrol+its metabolites) following the administration to voluntary subjects of a single dose of resveratrol of 180 mg […]® (circles), from pure resveratrol not supported (squares) and a simulation of the combination of resveratrol from […]® and pure resveratrol not supported in the ratio 1:2 (triangles).
The pharmacokinetics in humans of different types of resveratrol formulations. The administration of 180 mg Resveratrol supported on magnesium hydroxide ([…]®) in voluntary subjects leads to a transient increase in total concentration (free resveratrol+resveratrol metabolites) plasmatic resveratrol with Time at the peak concentration of 30 minutes from administration, followed by a decay of about 40% in the period up to 180 minutes from administration.

The test system of data set [2] is female fertility. The data set is described as follows: Case reports of fertility enhancement in infertile/sub-fertile women. In kind it is in vivo, human.
Excerpt: A person is […] and is classified as infertile since has tried to conceive for more than 12 months without the initiation of a state of pregnancy. They are not affected by polycystic ovary syndrome according to the Rotterdam criteria.
The patient, a person classified as being sub-fertile because they have been trying to conceive for more than 12 months unsuccessfully. They are not affected by metabolic disorders such as polycystic ovary syndrome according to the Rotterdam criteria.
A person is […] and is classified as a sub-fertile because they have been trying to conceive for more than 12 months without starting a state of pregnancy. It is not affected by metabolic disorders such as polycystic ovary syndrome according to the Rotterdam criteria.

Structures are written as SMILES.

For `Oc1ccc(C=Cc2cc(O)cc(O)c2)cc1` [pure resveratrol, resveratrol], in data set [1], the “Total plasma concentration of resveratrol compared with REVIFAST” value is given as “absolute lesser value”. In addition, the Pregnancy outcome in data set [2] (case n1, infertile, 100 mg per day for 3 months) is “without having a pregnancy”; in data set [2] (case n1, dosage doubled to 200 mg), “has not changed its situation”.

The values above are taken from patent publication US12171728B2, “Mixture of resveratrol supported on metal hydroxide and non-supported pure resveratrol for treating female fertility” (priority 2018, dated 2024).
